Experimental data: PMC9657236, “Anti-Leukemic Activity of Brassica-Derived Bioactive Compounds in HL-60 Myeloid Leukemia Cells” (International Journal of Molecular Sciences, 2022)
Like-named read-outs stand apart in the source and are kept apart here.

Legend:
[1] = tested on: NRF2/KEAP1 signaling pathway; assay: RT-qPCR gene expression in undifferentiated HL-60 cells; format: cell-based, human; conditions: for expression levels of the NRF2-target genes HMOX, NQO1 and GSTA1 (in words): undifferentiated HL-60, RT-qPCR, dose-dependent
Excerpt: Total RNA was extracted from HL-60 cells using the GenElute Mammalian Total RNA Miniprep kit (Sigma) following the manufacturer’s instructions. RNA was eluted in RNAse-free water and checked for concentration and purity using the Nanodrop spectrophotometer system (ND-100 3.3. Nanodrop Technologies, Thermo Scientific, Madrid, Spain). Only samples with a ratio of Abs260/Abs280 between 1.8 and 2.1 were used for gene expression assays. cDNA was generated using a high-capacity RNA-to-cDNA kit (Thermo Fisher Scientific, Madrid, Spain) according to the manufacturer’s protocol. PCR amplification was carried out with PowerUp SYBR Green PCR Master Mix (Applied Biosystems, Waltham, MA, USA) using a Fast 7500 Real-Time instrument (Applied Biosystems, Waltham, MA, USA). The obtained data were analyzed using the 7500 SDS software (Applied Biosystems, Waltham, MA, USA). Actin beta (ACTB) and Glyceraldehyde 3-phosphate dehydrogenase (GAPDH) were used as reference genes. Both were considered suitable reference genes for gene expression normalization based on geNorm and/or Bestkeeper stability analysis. The gene-stability measures were performed using the RefFinder tool. Relative expression was calculated using the 2^−ΔΔCt method. All experiments were performed in triplicate and in three independent experiments.

[2] = MTT viability assay in macrophage-like differentiated HL-60 cells; format: cell-based, human; conditions: human, macrophage-like differentiated HL-60 cells (PMA), differentiated HL-60 cells, 48 h, MTT, mean ± SD
Protocol: (§1) In order to test the specificity of the compounds as potential anti-tumor/cytotoxic agents with no collateral negative effects upon non-proliferative cells, the series of compounds were also assayed in an in vitro model of human macrophage-like cells derived from the same HL-60 cell line. To obtain these differentiated macrophage-like cells, HL-60 human leukemia cells growing at an exponential rate in suspension were exposed to a dose of 10 ng/mL of phorbol myristate acetate (PMA) (Sigma-Aldrich, Merck, Análisis Vínicos SL, Tomelloso, Spain) for 24 h in 96-well plates at a cell density of 0.2·10^6 HL-60 cells/well at 37 °C and 5% CO2. Cells were then incubated in culture media without PMA for another 24 h in the same culture conditions. After differentiation and resting periods, differentiated cells were treated for 48 h with compound solutions at different concentrations. Finally, MTT assays were performed as previously explained to measure cell viability. All experiments were performed in triplicate and in three independent experiments.

[3] = tested on: HL-60 cells; design: method as in PMID 15135302; conditions: apoptosis induction and cytodifferentiation; cited from earlier work
[4] = tested on: HL-60 cells; assay: MTT viability assay in proliferative HL-60 cells; format: cell-based, human; conditions: for IC50: proliferative HL-60 cells, mean ± SD, n = 3; for IC50 / effect on HL-60 cell viability (in words): MTT; for cytotoxic effect (in words): after 24 h; for effect on HL-60 cell viability (in words): doses up to 50 µM, 24, 48 and 72 h
Protocol: The human acute myeloid leukemia cell line HL-60 (ATCC® CCL-240™) was used to test the Brassica spp. phytochemicals. Maintenance of the cells was performed as previously described. Briefly, cells were grown in RPMI-1640 medium (Biowest) supplemented with 10% fetal bovine serum (FBS; Gibco, Thermo Fisher Scientific, Madrid, Spain) and 1% penicillin/streptomycin (Gibco, Thermo Fisher Scientific, Madrid, Spain), at 37 °C with 5% CO2 and 90% humidity. All in vitro assays were performed after passage number 5 and before passage number 20 with cells growing at an exponential ratio.
The anti-tumor activity of the compounds was evaluated by the MTT (3-(4,5-dimethylthiazol-2-yl)-2,5-diphenyltetrazolium bromide) viability assays as described previously. In brief, HL-60 cells were cultured at a concentration of 10^5 cells/mL (exponential growth rate) in 96-well plates containing 200 μL of cell culture medium and exposed to different doses of the tested compounds (0.5 μM, 1 μM, 5 μM, 10 μM, 25 μM, and 50 μM) for 24, 48, and 72 h. Then, MTT (Thermo Fisher) was added at a final concentration of 483 μM (0.2 mg/mL) and cells were incubated for 1 h at 37 °C and 5% CO2. Afterward, cells were lysed using an acidified isopropanol solubilization solution containing 0.04 M hydrochloric acid and 0.1% NP-40 detergent to release the formazan. Finally, the absorbance was measured at 550 nm using a SPECTROstar Nano (BMG Labtech, Germany) plate reader. The compound cytotoxicity was normalized to the control conditions (untreated with an equivalent dose of vehicle (DMSO) when applicable).

[5] = tested on: HL-60 differentiated cells; assay: MTT viability assay in macrophage-like differentiated HL-60 cells; format: cell-based, human
Protocol: as §1

[6] = Homo sapiens, HL-60, higher dose (50 µM), 48 h, read-out: cell viability

OC[C@H]1O[C@@H](Oc2cc3c(O)cc(O)cc3[o+]c2-c2ccc(O)c(O)c2)[C@H](O)[C@@H](O)[C@@H]1O [C3G, cyanidin-3-glucoside chloride]
expression levels of the NRF2-target genes HMOX, NQO1 and GSTA1 (in words) [1]: markedly induce | viability at 48 h, 10 µM [2]: 114 ± 24.4% | viability at 48 h, 25 µM [2]: 108 ± 7.4% | viability at 48 h, 50 µM [2]: 107 ± 12.8% | concentrations needed to inhibit the proliferative capacity of HL-60 cells [3]: > 100 µM | cell viability ([4]; 10–50 µM doses, 24 h): around 40% | cell viability ([4]; 25 and 50 µM, 48 h and 72 h): below 20% | IC50 ([4]; Homo sapiens, 48 h treatment): 7 ± 1 µM | IC50 ([4]; Homo sapiens, 72 h treatment): 21.9 ± 0.3 µM

O=C(/C=C/c1ccc(O)c(O)c1)O[C@@H]1C[C@](O)(C(=O)O)C[C@@H](O)[C@H]1O [CQA, Chlorogenic acid]
expression levels of the NRF2-target genes HMOX, NQO1 and GSTA1 (in words) [1]: markedly induce | viability at 48 h, 10 µM [2]: 114 ± 19.2% | viability at 48 h, 25 µM [2]: 114 ± 20.6% | viability at 48 h, 50 µM [2]: 109 ± 11.8% | viability at 25 µM ([4]; Homo sapiens, HL-60, 25 µM treatment, 48 and 72 h, read-out: cell viability): < 50% | viability at 50 µM [4, 6]: 13% | viability at 50 µM ([4]; Homo sapiens, HL-60, higher dose (50 µM), 72 h, read-out: cell viability): 11% | IC50 ([4]; Homo sapiens, 48 h treatment): 17.4 ± 0.7 µM | IC50 ([4]; Homo sapiens, 72 h treatment): 28.9 ± 0.7 µM

c1ccc2c(Cc3c[nH]c4ccccc34)c[nH]c2c1 [DIM, 3,3′-Diindolmethane]
viability at 48 h, 10 µM [2]: 102 ± 22.7% | viability at 48 h, 25 µM [2]: 118 ± 27.2% | viability at 48 h, 50 µM [2]: 105 ± 13.5% | viability at 50 µM [4, 6]: 25% | cytotoxic effect (in words) [4]: mild but significant cytotoxic effect | maximum cytotoxicity ([4]; higher dose (50 µM), 48 h): 75%

O=S(=O)(O)O/N=C(/Cc1c[nH]c2ccccc12)S[C@@H]1O[C@H](CO)[C@@H](O)[C@H](O)[C@H]1O [GBS, glucobrassicin]
effect on HL-60 cell viability (in words) [4]: did not show any effect

CSCCCCC(=NOS(=O)(=O)O)SC1OC(CO)C(O)C(O)C1O (stereo not drawn) [GER, glucoerucin]
effect on HL-60 cell viability (in words) [4]: did not show any significant effects

C[S+]([O-])CCCC/C(=N\OS(=O)(=O)O)S[C@@H]1O[C@H](CO)[C@@H](O)[C@H](O)[C@H]1O (stereo partly drawn) [GRA, glucoraphanin]
effect on HL-60 cell viability (in words) [4]: did not show any significant effects

OCc1c[nH]c2ccccc12 [I3C, indole-3-carbinol]
viability at 48 h, 10 µM [2]: 93.6 ± 8% | viability at 48 h, 25 µM [2]: 99.5 ± 5.4% | viability at 48 h, 50 µM [2]: 95.1 ± 10.4% | viability at 50 µM ([4]; Homo sapiens, HL-60, maximum dose (50 µM), 24 h, read-out: cell viability): 38% | cytotoxic effect (in words) [4]: mild but significant cytotoxic effect

C[S+]([O-])CCCCN=C=S (stereo not drawn) [SFN, sulforaphane]
induction of the NRF2/KEAP1 signaling pathway (in words) ([1]; HL-60 cells): most potent NRF2 activator | expression levels of the NRF2-target genes HMOX, NQO1 and GSTA1 (in words) [1]: markedly induce | viability at 48 h, 10 µM [2]: 98.2 ± 12.1% | viability at 48 h, 25 µM [2]: 87.6 ± 6.8% | viability at 48 h, 50 µM [2]: 70 ± 17.5% | cytotoxicity in differentiated cells (in words) ([5]; 10 µM): did not cause significant cytotoxicity | cytotoxic effect in differentiated HL-60 cells (in words) ([5]; concentrations higher than 10 µM, 48 h): significant cytotoxic effect | cytotoxicity levels ([4]; 25 µM and 50 µM, all time points (24, 48 and 72 h)): above 95% | IC50 ([4]; Homo sapiens, HL-60, 48 h, 48 h treatment): 6 µM | IC50 ([4]; Homo sapiens, HL-60, 72 h, 72 h treatment): 11.3 ± 0.5 µM | viability at 10 µM ([4]; Homo sapiens, HL-60, 10 µM dose, all time points (24, 48, 72 h)): < 50% | IC50 ([4]; 48 h treatment): 5.9 ± 0.3 µM

COc1cc(/C=C/C(=O)O)cc(OC)c1O [SIA, sinapic acid]
effect on HL-60 cell viability (in words) [4]: did not have any effect whatsoever
